Measurements: PubChem BioAssay AID504400 (The Scripps Research Institute Molecular Screening Center, 2011)
The source made the active and inactive calls. How the calls were made is not given here.

Tests used:
Experiment in all cases: CYP450 and receptor off-target profile – biochemical, Ricerca HitProfilingScreen, selectivity assay for S1P4 agonist project, late-stage follow-up (AID 504400)
[1] = target: 5-hydroxytryptamine receptor 2B (Homo sapiens) (UniProt P41595); details: Ricerca radioligand binding/enzyme panel plus CYP450; Serotonin (5-Hydroxytryptamine) 5-HT2B; at 10 µM; active compounds read high
Adenosine A1 = details: Ricerca radioligand binding/enzyme panel plus CYP450, at 10 µM, active compounds read high
Adenosine A2A = details: Ricerca radioligand binding/enzyme panel plus CYP450, at 10 µM, active compounds read high
Adrenergic alpha1A = details: Ricerca radioligand binding/enzyme panel plus CYP450, at 10 µM, active compounds read high
Adrenergic alpha1B = details: Ricerca radioligand binding/enzyme panel plus CYP450, at 10 µM, active compounds read high
Adrenergic beta1 = details: Ricerca radioligand binding/enzyme panel plus CYP450, at 10 µM, active compounds read high
[2] = target: Alpha-2A adrenergic receptor (Homo sapiens) (UniProt P08913); details: Ricerca radioligand binding/enzyme panel plus CYP450; Adrenergic alpha2A; at 10 µM; active compounds read high
[3] = tested on: Alpha-2A adrenergic receptor (Homo sapiens) + Histamine H1 receptor (Homo sapiens) + Mu-type opioid receptor (Homo sapiens); details: Ricerca radioligand binding/enzyme panel plus CYP450; at 10 µM; active compounds read high
[4] = target: Beta-2 adrenergic receptor (Homo sapiens) (UniProt P07550); details: Ricerca radioligand binding/enzyme panel plus CYP450; Adrenergic beta2; at 10 µM; active compounds read high
CYP450, 2C19 = details: Ricerca radioligand binding/enzyme panel plus CYP450, at 10 µM, active compounds read high
Calcium Channel L-Type = details: Ricerca radioligand binding/enzyme panel plus CYP450, Dihydropyridine, at 10 µM, active compounds read high
Cannabinoid CB1 = details: Ricerca radioligand binding/enzyme panel plus CYP450, at 10 µM, active compounds read high
[5] = target: Cytochrome P450 1A2 (Homo sapiens) (UniProt P05177); details: Ricerca radioligand binding/enzyme panel plus CYP450; CYP450, 1A2; at 10 µM; active compounds read high
[6] = target: Cytochrome P450 2C9 (Homo sapiens) (UniProt P11712); details: Ricerca radioligand binding/enzyme panel plus CYP450; CYP450, 2C9; at 10 µM; active compounds read high
[7] = target: Cytochrome P450 2D6 (Homo sapiens) (UniProt P10635); details: Ricerca radioligand binding/enzyme panel plus CYP450; CYP450, 2D6; at 10 µM; active compounds read high
[8] = target: Cytochrome P450 3A4 (Homo sapiens) (UniProt P08684); details: Ricerca radioligand binding/enzyme panel plus CYP450; CYP450, 3A4; at 10 µM; active compounds read high
[9] = target: D(1A) dopamine receptor (Homo sapiens) (UniProt P21728); details: Ricerca radioligand binding/enzyme panel plus CYP450; Dopamine D1; at 10 µM; active compounds read high
Dopamine D2S = details: Ricerca radioligand binding/enzyme panel plus CYP450, at 10 µM, active compounds read high
GABAA = details: Central, at 10 µM, active compounds read high
Glutamate NMDA = details: Ricerca radioligand binding/enzyme panel plus CYP450, Phencyclidine, at 10 µM, active compounds read high
Histamine H1 = details: Ricerca radioligand binding/enzyme panel plus CYP450, at 10 µM, active compounds read high
[10] = target: Muscarinic acetylcholine receptor M2 (Homo sapiens) (UniProt P08172); details: Ricerca radioligand binding/enzyme panel plus CYP450, at 10 µM, active compounds read high
[11] = target: Muscarinic acetylcholine receptor M3 (Homo sapiens) (UniProt P20309); details: Ricerca radioligand binding/enzyme panel plus CYP450, at 10 µM, active compounds read high
Nicotinic Acetylcholine = details: Ricerca radioligand binding/enzyme panel plus CYP450, at 10 µM, active compounds read high
Opiate mu (OP3, MOP) = details: Ricerca radioligand binding/enzyme panel plus CYP450, at 10 µM, active compounds read high
Prostanoid EP4 = details: Ricerca radioligand binding/enzyme panel plus CYP450, at 10 µM, active compounds read high
Sigma 1 = details: Ricerca radioligand binding/enzyme panel plus CYP450, at 10 µM, active compounds read high
Sodium Channel, Site 2 = details: Ricerca radioligand binding/enzyme panel plus CYP450, at 10 µM, active compounds read high
[12] = tested on: Transporter, Norepinephrine (NET); details: Ricerca radioligand binding/enzyme panel plus CYP450, at 10 µM, active compounds read high
[13] = target: Voltage-gated inwardly rectifying potassium channel KCNH2 (Homo sapiens) (UniProt Q12809); details: Ricerca radioligand binding/enzyme panel plus CYP450; Potassium Channel hERG; at 10 µM; active compounds read high
Sequence of Voltage-gated inwardly rectifying potassium channel KCNH2 (Homo sapiens) (Q12809 whole entry, looked up): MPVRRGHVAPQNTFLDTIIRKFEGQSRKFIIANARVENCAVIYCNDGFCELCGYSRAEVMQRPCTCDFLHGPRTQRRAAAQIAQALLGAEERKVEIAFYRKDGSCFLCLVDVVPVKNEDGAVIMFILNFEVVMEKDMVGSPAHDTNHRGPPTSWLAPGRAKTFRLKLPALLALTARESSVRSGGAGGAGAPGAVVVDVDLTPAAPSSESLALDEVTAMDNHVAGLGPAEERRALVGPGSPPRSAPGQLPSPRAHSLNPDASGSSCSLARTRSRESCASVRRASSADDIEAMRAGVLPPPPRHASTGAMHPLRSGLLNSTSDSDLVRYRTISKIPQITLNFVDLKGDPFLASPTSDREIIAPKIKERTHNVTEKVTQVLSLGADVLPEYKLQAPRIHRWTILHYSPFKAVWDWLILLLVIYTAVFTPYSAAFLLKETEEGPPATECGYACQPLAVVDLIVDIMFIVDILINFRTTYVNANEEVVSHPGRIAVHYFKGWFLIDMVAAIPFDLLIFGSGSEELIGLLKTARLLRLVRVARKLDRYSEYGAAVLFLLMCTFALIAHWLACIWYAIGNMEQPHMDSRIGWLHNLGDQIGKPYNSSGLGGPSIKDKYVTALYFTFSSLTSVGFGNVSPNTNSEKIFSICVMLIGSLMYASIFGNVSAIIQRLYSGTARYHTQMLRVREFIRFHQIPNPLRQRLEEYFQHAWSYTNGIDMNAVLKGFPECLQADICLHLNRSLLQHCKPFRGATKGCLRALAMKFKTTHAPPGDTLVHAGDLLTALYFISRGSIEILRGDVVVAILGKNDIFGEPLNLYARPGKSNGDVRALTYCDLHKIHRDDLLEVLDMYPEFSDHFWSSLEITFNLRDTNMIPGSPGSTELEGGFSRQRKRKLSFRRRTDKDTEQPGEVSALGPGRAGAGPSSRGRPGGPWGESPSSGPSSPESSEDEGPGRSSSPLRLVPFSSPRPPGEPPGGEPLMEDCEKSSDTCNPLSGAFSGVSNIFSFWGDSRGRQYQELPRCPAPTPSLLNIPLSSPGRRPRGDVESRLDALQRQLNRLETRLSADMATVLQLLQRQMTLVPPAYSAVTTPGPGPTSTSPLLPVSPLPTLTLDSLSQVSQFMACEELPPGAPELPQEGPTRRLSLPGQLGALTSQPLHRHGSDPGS

Sequence of Cytochrome P450 3A4 (Homo sapiens) (P08684 whole entry, looked up): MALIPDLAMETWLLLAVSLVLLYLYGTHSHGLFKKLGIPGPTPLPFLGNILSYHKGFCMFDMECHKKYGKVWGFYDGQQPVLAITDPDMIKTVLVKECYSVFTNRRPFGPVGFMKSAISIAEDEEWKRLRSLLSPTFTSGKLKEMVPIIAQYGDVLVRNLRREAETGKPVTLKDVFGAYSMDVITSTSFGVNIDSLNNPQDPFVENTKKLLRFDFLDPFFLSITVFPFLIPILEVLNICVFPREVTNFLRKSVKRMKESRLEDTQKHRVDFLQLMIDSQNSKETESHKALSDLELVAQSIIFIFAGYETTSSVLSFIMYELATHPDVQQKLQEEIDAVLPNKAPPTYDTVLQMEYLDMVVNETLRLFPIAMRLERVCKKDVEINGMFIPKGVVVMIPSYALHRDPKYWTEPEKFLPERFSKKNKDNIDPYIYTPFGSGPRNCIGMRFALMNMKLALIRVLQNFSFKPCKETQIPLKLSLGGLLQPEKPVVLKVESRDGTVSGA
Sequence of D(1A) dopamine receptor (Homo sapiens) (P21728 whole entry, looked up): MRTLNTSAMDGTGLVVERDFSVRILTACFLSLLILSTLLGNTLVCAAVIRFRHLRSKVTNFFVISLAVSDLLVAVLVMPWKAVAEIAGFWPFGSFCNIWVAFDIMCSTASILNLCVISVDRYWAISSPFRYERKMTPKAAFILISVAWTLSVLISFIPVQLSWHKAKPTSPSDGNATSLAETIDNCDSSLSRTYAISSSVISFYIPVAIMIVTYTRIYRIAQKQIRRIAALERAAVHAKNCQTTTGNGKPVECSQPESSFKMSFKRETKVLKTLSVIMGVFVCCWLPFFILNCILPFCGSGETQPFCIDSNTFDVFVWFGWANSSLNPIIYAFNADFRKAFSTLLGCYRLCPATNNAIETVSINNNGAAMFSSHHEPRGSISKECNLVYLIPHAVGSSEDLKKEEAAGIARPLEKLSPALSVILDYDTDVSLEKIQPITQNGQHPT
Sequence of Muscarinic acetylcholine receptor M2 (Homo sapiens) (P08172 whole entry, looked up): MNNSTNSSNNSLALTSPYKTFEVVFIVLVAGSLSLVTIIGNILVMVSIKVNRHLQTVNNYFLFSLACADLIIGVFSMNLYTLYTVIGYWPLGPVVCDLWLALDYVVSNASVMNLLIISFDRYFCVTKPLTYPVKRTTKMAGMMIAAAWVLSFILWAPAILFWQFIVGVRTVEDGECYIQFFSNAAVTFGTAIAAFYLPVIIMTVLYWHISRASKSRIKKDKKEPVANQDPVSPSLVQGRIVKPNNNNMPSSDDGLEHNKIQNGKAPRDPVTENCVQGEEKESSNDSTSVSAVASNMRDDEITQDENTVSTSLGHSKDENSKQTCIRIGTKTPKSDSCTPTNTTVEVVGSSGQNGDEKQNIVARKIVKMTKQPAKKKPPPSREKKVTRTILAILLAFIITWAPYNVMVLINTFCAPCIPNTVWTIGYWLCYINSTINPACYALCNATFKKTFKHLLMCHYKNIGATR
Sequence of Cytochrome P450 2D6 (Homo sapiens) (P10635 whole entry, looked up): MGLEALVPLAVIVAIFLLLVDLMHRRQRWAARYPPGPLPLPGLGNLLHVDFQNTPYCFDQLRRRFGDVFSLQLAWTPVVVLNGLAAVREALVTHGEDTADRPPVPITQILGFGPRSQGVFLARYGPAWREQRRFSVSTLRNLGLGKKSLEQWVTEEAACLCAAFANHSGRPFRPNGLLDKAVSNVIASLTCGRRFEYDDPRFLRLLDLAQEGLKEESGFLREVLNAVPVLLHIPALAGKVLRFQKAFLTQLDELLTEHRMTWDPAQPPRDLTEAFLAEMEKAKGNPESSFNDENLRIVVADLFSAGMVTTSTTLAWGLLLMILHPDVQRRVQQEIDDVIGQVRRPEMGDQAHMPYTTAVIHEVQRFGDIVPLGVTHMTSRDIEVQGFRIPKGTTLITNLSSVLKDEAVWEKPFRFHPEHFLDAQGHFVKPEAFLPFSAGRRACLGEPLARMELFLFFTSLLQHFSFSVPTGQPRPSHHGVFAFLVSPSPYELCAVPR
Sequence of 5-hydroxytryptamine receptor 2B (Homo sapiens) (P41595 whole entry, looked up): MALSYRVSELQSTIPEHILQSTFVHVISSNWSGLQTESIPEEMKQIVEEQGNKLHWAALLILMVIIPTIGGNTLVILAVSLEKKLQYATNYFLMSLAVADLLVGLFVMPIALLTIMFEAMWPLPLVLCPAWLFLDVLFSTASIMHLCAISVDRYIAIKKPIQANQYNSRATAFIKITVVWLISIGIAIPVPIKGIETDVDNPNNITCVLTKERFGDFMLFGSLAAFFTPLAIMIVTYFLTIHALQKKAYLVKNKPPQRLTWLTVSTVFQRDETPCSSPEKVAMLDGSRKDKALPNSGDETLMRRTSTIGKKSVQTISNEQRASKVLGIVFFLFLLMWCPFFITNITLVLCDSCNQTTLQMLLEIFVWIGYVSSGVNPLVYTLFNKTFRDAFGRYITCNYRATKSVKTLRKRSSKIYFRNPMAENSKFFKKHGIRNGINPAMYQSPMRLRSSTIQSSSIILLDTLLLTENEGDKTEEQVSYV
Sequence of Beta-2 adrenergic receptor (Homo sapiens) (P07550 whole entry, looked up): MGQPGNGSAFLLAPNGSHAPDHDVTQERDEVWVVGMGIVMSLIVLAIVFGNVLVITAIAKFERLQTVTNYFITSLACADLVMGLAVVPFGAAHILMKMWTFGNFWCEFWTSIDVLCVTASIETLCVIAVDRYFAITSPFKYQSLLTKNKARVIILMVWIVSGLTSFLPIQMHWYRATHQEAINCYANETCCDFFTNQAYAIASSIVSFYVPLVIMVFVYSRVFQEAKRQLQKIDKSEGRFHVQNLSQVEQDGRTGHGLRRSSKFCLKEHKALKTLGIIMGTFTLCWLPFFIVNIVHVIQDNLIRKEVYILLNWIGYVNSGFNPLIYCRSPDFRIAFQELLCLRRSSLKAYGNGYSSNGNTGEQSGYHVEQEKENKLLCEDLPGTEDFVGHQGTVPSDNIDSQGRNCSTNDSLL
Sequence of Cytochrome P450 1A2 (Homo sapiens) (P05177 whole entry, looked up): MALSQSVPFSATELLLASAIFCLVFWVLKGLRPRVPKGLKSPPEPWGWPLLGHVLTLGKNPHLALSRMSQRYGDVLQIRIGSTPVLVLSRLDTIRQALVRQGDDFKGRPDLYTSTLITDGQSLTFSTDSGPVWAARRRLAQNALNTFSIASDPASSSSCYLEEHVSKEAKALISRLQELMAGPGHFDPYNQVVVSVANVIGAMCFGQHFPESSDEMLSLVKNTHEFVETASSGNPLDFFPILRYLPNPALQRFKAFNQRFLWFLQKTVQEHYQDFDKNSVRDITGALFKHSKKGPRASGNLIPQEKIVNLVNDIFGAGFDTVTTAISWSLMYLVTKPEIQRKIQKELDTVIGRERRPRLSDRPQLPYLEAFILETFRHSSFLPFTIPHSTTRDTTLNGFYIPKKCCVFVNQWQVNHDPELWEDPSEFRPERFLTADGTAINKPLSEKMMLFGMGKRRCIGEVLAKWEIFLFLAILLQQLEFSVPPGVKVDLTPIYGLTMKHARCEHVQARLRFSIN
Sequence of Cytochrome P450 2C9 (Homo sapiens) (P11712 whole entry, looked up): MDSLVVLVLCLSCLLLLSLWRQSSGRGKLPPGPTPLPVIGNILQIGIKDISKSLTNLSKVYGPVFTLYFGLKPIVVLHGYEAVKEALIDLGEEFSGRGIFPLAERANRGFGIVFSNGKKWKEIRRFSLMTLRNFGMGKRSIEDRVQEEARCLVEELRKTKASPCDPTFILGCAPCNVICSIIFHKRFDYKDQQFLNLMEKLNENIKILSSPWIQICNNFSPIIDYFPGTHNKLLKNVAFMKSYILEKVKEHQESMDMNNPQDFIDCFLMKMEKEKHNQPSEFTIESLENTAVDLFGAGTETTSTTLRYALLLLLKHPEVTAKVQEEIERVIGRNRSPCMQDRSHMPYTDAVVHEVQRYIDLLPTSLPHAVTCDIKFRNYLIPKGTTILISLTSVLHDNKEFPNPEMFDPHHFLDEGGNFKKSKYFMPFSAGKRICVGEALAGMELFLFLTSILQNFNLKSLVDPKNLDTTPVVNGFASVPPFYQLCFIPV

## Clc1ccc(OCCOc2ccc(Br)nc2Br)c(Cl)c1
[1]
  inhibition: 27% (inactive)
Adenosine A1
  inhibition: 7% (inactive)
Adenosine A2A
  inhibition: 10% (inactive)
Adrenergic alpha1A
  inhibition: 28% (inactive)
Adrenergic alpha1B
  inhibition: 26% (inactive)
Adrenergic beta1
  inhibition: 12% (inactive)
[2]
  inhibition: 9% (inactive)
[3]
  inhibition: 0% (inactive)
[4]
  inhibition: 7% (inactive)
CYP450, 2C19
  inhibition: 97%
Calcium Channel L-Type
  inhibition: 51%
Cannabinoid CB1
  inhibition: 31% (inactive)
[5]
  inhibition: 58%
[6]
  inhibition: 3% (inactive)
[7]
  inhibition: 2% (inactive)
[8]
  inhibition: -5% (inactive)
[9]
  inhibition: 18% (inactive)
Dopamine D2S
  inhibition: 25% (inactive)
GABAA; Ricerca radioligand binding/enzyme panel plus CYP450, Flunitrazepam
  inhibition: 2% (inactive)
GABAA; Ricerca radioligand binding/enzyme panel plus CYP450, Muscimol
  inhibition: 1% (inactive)
Glutamate NMDA
  inhibition: -5% (inactive)
Histamine H1
  inhibition: 15% (inactive)
[10]
  inhibition: 2% (inactive)
[11]
  inhibition: -3% (inactive)
Nicotinic Acetylcholine
  inhibition: -4% (inactive)
Opiate mu (OP3, MOP)
  inhibition: 9% (inactive)
Prostanoid EP4
  inhibition: -7% (inactive)
Sigma 1
  inhibition: 22% (inactive)
Sodium Channel, Site 2
  inhibition: 32% (inactive)
[12]
  inhibition: 68%
[13]
  inhibition: -1% (inactive)
